Test results: PubChem BioAssay (NCI)
“And” between values parts separate entries of the source, which are not always exact repeats. Equal entries are not always repeated.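 Protocol summary: plate cells (96-well), add compound at 5 concentrations, incubate 48 h, interpolate endpoints linearly. GI50 marks 50% less growth. TGI marks complete inhibition of growth.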

Legend:
Assay in all cases: growth of human tumour cells (NCI), 48 h
ACHN renal = system: ACHN renal
CCRF-CEM leukemia = system: CCRF-CEM leukemia
HCT-116 colon = system: HCT-116 colon
HL-60(TB) leukemia = system: HL-60(TB) leukemia
HT29 colon = system: HT29 colon
NCI-H460 lung = system: NCI-H460 lung
RPMI-8226 leukemia = system: RPMI-8226 leukemia
RXF 393 renal = system: RXF 393 renal
SF-295 CNS = system: SF-295 CNS
SF-539 CNS = system: SF-539 CNS

Structure (SMILES)	TGI (ACHN renal)	TGI (CCRF-CEM leukemia)	TGI (HCT-116 colon)	TGI (HL-60(TB) leukemia)	TGI (HT29 colon)	TGI (NCI-H460 lung)	TGI (RPMI-8226 leukemia)	TGI (RXF 393 renal)	TGI (SF-295 CNS)	TGI (SF-539 CNS)	GI50 (ACHN renal)	GI50 (CCRF-CEM leukemia)	GI50 (HCT-116 colon)	GI50 (HL-60(TB) leukemia)	GI50 (HT29 colon)	GI50 (NCI-H460 lung)	GI50 (RPMI-8226 leukemia)	GI50 (RXF 393 renal)	GI50 (SF-295 CNS)	GI50 (SF-539 CNS)
C=C1C(=O)C23CC1CCC2C12CO[C@@H]4OCC(C)(CC[C@@H]1OC3=O)C42 (some centres undefined)	9.4 µM	12.1 µM	6.33 µM	19.5 µM	10.3 µM	17.5 µM	19 µM	6.72 µM	30.9 µM	14.8 µM										
COC1CCC(N2C(=O)CNc3ncc(-c4ccc(C(C)(C)O)nc4)nc32)CC1 (centres undefined)	> 100 µM	> 100 µM	> 10 µM and 13.8 µM	> 10 µM and 30.8 µM	> 38.4 µM	> 46 µM	2.95 µM and 3.97 µM	3.66 µM and 2.32 µM	4.75 µM and 3.09 µM	6.95 µM and 4.7 µM	1070 nM and 205 nM	1410 nM and 738 nM	2070 nM and 809 nM	2880 nM and 1090 nM	1830 nM and 472 nM	0.455 µM and 0.113 µM	376 nM and 55.9 nM	373 nM and 187 nM	0.511 µM and 0.157 µM	1420 nM and 335 nM
O=C1C=C(Cl)C(=O)C(c2ccc(Cl)cc2)=C1	30.3 µM	15.9 µM	38.1 µM	42.8 µM	62.8 µM	> 100 µM	83.8 µM	34 µM	> 100 µM	32.4 µM										
O=CN/C=C/c1cc(O)ccc1O	28.9 µM	23.9 µM	29.2 µM	13.2 µM	56.5 µM	> 100 µM	78.2 µM	26.3 µM	> 100 µM	43.9 µM										
O=C1CC(c2ccc3c(c2)OCO3)Nc2ccccc21 (centres undefined)	> 87.4 µM	> 100 µM	23.9 µM	> 100 µM	33.1 µM	33.7 µM	13.3 µM	28.3 µM	24.1 µM	24 µM	7220 nM	3850 nM	10200 nM	3160 nM	7760 nM	9.02 µM	3050 nM	11700 nM	10.1 µM	10800 nM
CC/C=C\CCC/C=C1/C(=O)C=C[C@@H]1C/C=C\CCCC(=O)OC	4.43 µM	8.32 µM	4.95 µM	7.51 µM	3.87 µM	14.2 µM	8.15 µM	6.02 µM	8.75 µM	12.9 µM	2130 nM	2570 nM	2440 nM	2790 nM	2140 nM	3.9 µM	2930 nM	2600 nM	3.1 µM	3490 nM
O=C1C(Cl)=C(Nc2cccc(Cl)c2)C(=O)N1Cc1ccc(Cl)cc1Cl	7.71 µM	> 100 µM	7.57 µM	> 100 µM	14.7 µM	21 µM	15.4 µM	3.83 µM	33.4 µM	2.92 µM	409 nM	4380 nM	685 nM	7660 nM	971 nM	2.68 µM	3180 nM	181 nM	4.22 µM	< 46.6 nM
Cn1cc(C2=C(c3cn(C)c4ncccc34)C(=O)NC2=O)c2ccccc21	> 25 µM	> 22.9 µM	> 25 µM	20.1 µM	> 24.1 µM	> 25 µM	> 23.2 µM	10.7 µM	> 25 µM	14.3 µM	7030 nM	8410 nM	8390 nM	7850 nM	6470 nM	9.96 µM	9040 nM	3800 nM	7.18 µM	5350 nM
Clc1ccc2c(NCCCCNc3nc(N4CCCCC4)nc4ccccc34)ccnc2c1	4.77 µM	5.23 µM	3.06 µM	3.52 µM	4.86 µM	9.03 µM	3.94 µM	3.37 µM	2.6 µM	2.97 µM	2100 nM	1660 nM	1200 nM	1760 nM	1630 nM	2.56 µM	1460 nM	1660 nM	1.22 µM	1490 nM
O=CC[C@H]1C(=O)C[C@@H]2CCC[C@@H]21	> 100 µM	> 100 µM	> 100 µM	> 100 µM	> 100 µM	> 100 µM	> 100 µM	> 100 µM	> 100 µM	> 100 µM										
COc1cc(-c2nn(-c3ccc(NC(=O)c4ccc(Cl)c(C(F)(F)F)c4)cc3)cc2-c2ccncc2)ccc1Cl	> 100 µM	> 100 µM	> 58.2 µM	> 57.3 µM	4.25 µM	> 100 µM	6.47 µM	1.61 µM	0.948 µM	8.6 µM	3350 nM	2500 nM	2810 nM	3620 nM	1800 nM	3.43 µM	1790 nM	461 nM	0.255 µM	1830 nM
O=C(O)c1ccccc1[Se][Se]c1ccccc1C(=O)O	> 100 µM	> 100 µM	> 100 µM	> 100 µM	> 100 µM	> 100 µM	> 100 µM	> 100 µM	> 100 µM	> 100 µM										
C=C(CN1CCN(c2ccc(Cl)cc2F)CC1)c1ccc(C(=O)Nc2ccccc2N)cc1	> 100 µM	> 100 µM	> 94.2 µM		> 100 µM	> 100 µM	3.21 µM	12.4 µM	> 100 µM	> 52.8 µM	4020 nM	524 nM	1850 nM	794 nM	2960 nM	3.23 µM	628 nM	867 nM	3.16 µM	2020 nM
COC1=CC(=O)c2nc(-c3ccncc3)[nH]c2C1=O	> 100 µM	> 100 µM	> 100 µM	> 100 µM	> 100 µM	> 100 µM	> 100 µM	> 100 µM	> 100 µM	> 100 µM	> 100000 nM	> 100000 nM	> 100000 nM	> 100000 nM	> 100000 nM	> 100 µM	> 100000 nM	> 100000 nM	> 100 µM	> 100000 nM
